Data: US20170151299A1, “EXTRACTS OF SANTOLINA CHAMAECYPARISSUS” (priority 2014, published 2017)
Converted amounts (≈) assume the structure as drawn. Read-outs that look alike come from different tables or passages of the source.

Assays:
[1] = type: physicochemical
Procedure: The pure compound appeared to be unstable once isolated, and particularly in aqueous and acid conditions. Since antimicrobial assays were performed in water, its antimicrobial activity could not be evaluated as for crude extracts or plant fractions. Thus, the inventors tried to establish a relationship between antimicrobial activity and active substance content in crude extracts.

Candida albicans = experiment: 96-well microtiter plate growth inhibition assay; type: cell-based; settings: for inhibition: 200 mg/mL sample at 2% in well (positive standard 0.4%)
Procedure: (§1) Antimicrobial activity of the crude extracts was determined using a 96-well microtiter plate assay based on growth inhibition. The assay was performed on […] different microbial strains, chosen according to the European Pharmacopoeia (ATCC references): Staphylococcus aureus ([…]), Escherichia coli (gram-negative bacteria), Pseudomonas aeruginosa ([…]), Propionibacterium acnes (anaerobic gram-positive bacteria), Aspergillus niger (fungus) and Candida albicans (yeast).
(§2) Samples for antimicrobial assay were prepared as follows: crude extracts were diluted at 200 mg/mL in a mixture of appropriate solvents, e.g. ethanol and water (60:40 v/v) or pure dimethylsulfoxide. After solubilization, the solutions were filtrated on 0.45 μm syringe filters.
(§3) The assay was performed for each strain according as follows: samples (at 200 mg/mL) were first diluted to 4% in water, then to 2% and 0.2% in wells. Final concentrations were also 0.4 and 0.04% of crude extracts in wells. Each concentration was assessed in replicate with one supplementary control well containing no microbial strain. For the assay at 2%, samples were mixed up in the wells with growth medium (95 μL) and microbial suspension (representing an absorbance of 0.6 for C. albicans, S. aureus and P. aeruginosa and 40 spores/μL for A. niger). For the assay at 0.2%, samples were first diluted to 0.2% with water in the wells. Negative controls constituted of the solvent mixture used to prepare the sample solutions, and positive controls with a synthetic preservative (methyl-paraben and/or phenoxyethanol, positive standard) were also prepared. Results were also compared with those obtained using a commercial natural preservative (commercial preservative). The 96-well plates were incubated at 25° C.
(§4) The absorbance was read for each plate at 620 nm 24, 48 and 72 hours after the beginning of the incubation to evaluate the growth of each microorganism in presence of crude extracts.
(§5) The results were expressed as a percentage of growth inhibition by the samples for each microorganism.

Pseudomonas aeruginosa = experiment: 96-well microtiter plate growth inhibition assay; type: cell-based; settings: for inhibition: 200 mg/mL sample at 2% in well (positive standard 0.4%)
Procedure: as §1, §2, §3, §4, §5

Aspergillus niger = experiment: 96-well microtiter plate growth inhibition assay; type: cell-based; settings: for inhibition at 200000 µg/mL (stock): 200 mg/mL sample at 2% in well (positive standard 0.4%)
Procedure: as §1, §2, §3, §4, §5

Staphylococcus aureus = experiment: 96-well microtiter plate growth inhibition assay; type: cell-based; settings: for inhibition at 200000 µg/mL (stock): 200 mg/mL sample at 2% in well (positive standard 0.4%)
Procedure: as §1, §2, §3, §4, §5

Propionibacterium acnes = experiment: Minimum inhibitory concentration (MIC); type: cell-based; settings: Cutibacterium acnes; Propionibacterium acnes (anaerobic); read-out: MIC (mg/mL) P. acnes
Procedure: In a second step for the optimized extract of S. chamaecyparissus, the minimum inhibitory concentration (MIC) and the minimum bactericidal concentration (MBC) were also measured including E. coli and P. acnes. […] The MBC is the lowest concentration of antibacterial agent required to kill a particular bacterium, that is to say to reduce the viability of the initial bacterial inoculum by >99.9%. The dilutions were run in triplicate for the MIC and MBC test. At the end of the incubation, the tubes were read for the growth inhibition and then the MBC was determined by sampling all the macroscopically clear tubes and the first turbid tube in the series.
The results were expressed in mg/mL of extract.
The optimized extract was then assessed for its antimicrobial activity and more particularly in order to determine the minimum inhibitory concentration for Propionibacterium acnes (gram-positive bacteria). Methyl paraben and phenoxyethanol, as universal antimicrobial agents, were used as positive control. Due to the a higher active substance (I) content, the impact on the antimicrobial activity and more particularly on an anaerobic bacteria was evaluated.

[2] = 24 h, read-out: Growth inhibition (%) 24 h, 2%
[3] = 48 h, read-out: Growth inhibition (%) 48 h, 2%
[4] = medium inhibition at 2%, Table 2
[5] = 72 h, read-out: Growth inhibition (%) 72 h, 2%

For `CC#CC#C/C=C1/C=CC2(OC=CC2OC(C)=O)O1` (centres unmarked) [pure compound, 1,6-dioxaspiro[4,4]nona-2,8-dien-4-ol,7-(2,4-hexadiyn-1-ylidene)-,4-acetate], the stability once isolated [1] was “unstable”.
For `COC(=O)c1ccc(O)cc1` [Positive standard, Methylparaben], the inhibition (Candida albicans; [2]) was 99%, the inhibition (Candida albicans; [3]) was 100% and the Review (Candida albicans; [4]) was “+++ (medium inhibition greater or equal to 90%)”. For the same compound, the inhibition (Pseudomonas aeruginosa; [3]) was 75%, the inhibition (Pseudomonas aeruginosa; [5]) was 81% and the Review (Pseudomonas aeruginosa; [4]) was “++ (medium inhibition comprised between 70% and 90%)”. For the same compound, the inhibition at 200000 µg/mL (stock) (Aspergillus niger; [3]) was 100%, the inhibition at 200000 µg/mL (stock) (Aspergillus niger; [5]) was 100% and the Review (Aspergillus niger; [4]) was “+++ (medium inhibition greater or equal to 90%)”. For the same compound, the inhibition at 200000 µg/mL (stock) (Staphylococcus aureus; [2]) was 80%, the inhibition at 200000 µg/mL (stock) (Staphylococcus aureus; [3]) was 93% and the Review (Staphylococcus aureus; [4]) was “++ (medium inhibition comprised between 70% and 90%)”. The MIC (Propionibacterium acnes) was 2.53 mg/mL (≈ 16.6 mM).
